Assay results published in patent US20060154898A1, “Diphosphonate solutions” (priority 2000, published 2006).
Structures can show the parent of a compound that is named as a salt.

Assay: pH of a diphosphonate solution in distilled water
Assay type: physicochemical
Settings: solution of one percent in distilled water
From the text: Solutions of diphosphonates will generally have a pH above that desired. For example, a solution of one percent pamidronate disodium salt in distilled water has a pH of approximately 8.3. The pH is adjusted with a suitable acid or alkali. Suitable acids include any acid such as hydrochloric or phosphoric acid. Phosphoric acid is preferred. Suitable […] include sodium hydroxide.

pH of solution: approximately 8.3
Compound: NCCC(O)(P(=O)(O)O)P(=O)(O)O [pamidronate disodium salt]
